The text below walks through data of the NIST ThermoML archive (doi:10.1021/acs.jced.5b00694).

SMILES strings stand for the structures. Numbers after ± are expanded uncertainties.

The nature of data set [1]: xn = mol fraction of the nth substance listed. As to conditions: 101 kPa, Liquid; for viscosity: 297.85 K, Cone and plate viscometry; for mass density: 298.15 K, Vibrating tube method.
For data set [2] the following is noted: 297.85 K; 101 kPa; Liquid; Cone and plate viscometry.

By viscosity is commonly meant the internal friction of a fluid under shear. The term mass density denotes the mass of a sample divided by its volume. With `CCCC[P+](CCCC)(CCCC)CCCC.O=C[O-]` [tetrabutylphosphonium formate] + O, the viscosity in data set [1] (x2 = 0.25) was 356 ± 43 mPa·s; in data set [1] (x2 = 0.5), 146 ± 16 mPa·s; in data set [1] (x2 = 0.6), 97 ± 10 mPa·s; in data set [1] (x2 = 0.74) it was 48 ± 4.9 mPa·s; in data set [1] (x2 = 0.8), 35.3 ± 3.6 mPa·s; in data set [1] (x2 = 0.91), 14.4 ± 1.4 mPa·s. Also, the mass density in data set [1] (x2 = 0.25) stood at 944 ± 1.2 kg/m3; in data set [1] (x2 = 0.32) it was 945.2 ± 1.1 kg/m3; in data set [1] (x2 = 0.5), 948 ± 1.2 kg/m3; in data set [1] (x2 = 0.6), 950.4 ± 1.4 kg/m3; in data set [1] (x2 = 0.74), 955.5 ± 1 kg/m3; in data set [1] (x2 = 0.8), 959.2 ± 0.9 kg/m3. In addition, in data set [1] (x2 = 0.91), the mass density stood at 974.1 ± 0.7 kg/m3.

Turning to `O` [water], the viscosity in data set [2] came to 0.9 ± 0.02 mPa·s.

Consider `O` [water] + CCCC[P+](CCCC)(CCCC)CCCC.O=C[O-], for which, in data set [1] (x1 = 1), the viscosity is recorded as 0.9 ± 0.09 mPa·s and the mass density is recorded as 996.8 ± 0.6 kg/m3.
